Active and inactive are the calls of the source. No cut-off for these calls is given here.
Key:
[1] = Cytotoxicity against human LX-2 cells assessed as reduction in cell viability measured after 48 hrs by CCK-8 assay; assay type: toxicity, cell-based
RAW264.7 [2] = assay: Inhibition of LPS-induced NFkappaB transcriptional activity in mouse RAW264.7 cells at 5 uM preincubated for 2 hrs followed by LPS stimulation and measured after 6 hrs by luciferase reporter gene assay relative to control; assay type: cell-based; conditions: time 8.0 hrs
RAW264.7 [3] = assay: Inhibition of LPS-induced NFkappaB transcriptional activity in mouse RAW264.7 cells at 10 uM preincubated for 2 hrs followed by LPS stimulation and measured after 6 hrs by luciferase reporter gene assay relative to control; assay type: cell-based; conditions: time 8.0 hrs
RAW264.7 [4] = assay: Inhibition of LPS-induced NFkappaB transcriptional activity in mouse RAW264.7 cells at 20 uM preincubated for 2 hrs followed by LPS stimulation and measured after 6 hrs by luciferase reporter gene assay relative to control; assay type: cell-based; conditions: time 8.0 hrs
RAW264.7 [5] = assay: Antiinflammatory activity in mouse RAW264.7 cells assessed as inhibition of TGFbeta1-induced alpha-SMA expression at 5 to 20 uM preincubated for 2 hrs […] and measured after 48 hrs by Western blot analysis; assay type: functional, cell-based; conditions: dose 5-20 µM, time 50.0 hrs
RAW264.7 [6] = assay: Antiinflammatory activity in mouse RAW264.7 cells assessed as inhibition of TGFbeta1-induced collagen 1 expression at 5 to 20 uM preincubated for 2 hrs […] and measured after 48 hrs by Western blot analysis; assay type: functional, cell-based; conditions: dose 5-20 µM, time 50.0 hrs

SMILES | IC50 at 48 h [1] | fold change (FC) (RAW264.7 [2]) | fold change (FC) (RAW264.7 [3]) | fold change (FC) (RAW264.7 [4]) | inhibition (RAW264.7 [5]) | inhibition (RAW264.7 [6])
COC(=O)CCC[C@@H]1[C@H]2CCCN3CCC[C@H](CN1C(=O)C(C)c1ccc(-c4ccccc4)cc1)[C@@H]23 (some centres not stated) | 21.9 µM | 1.01 | 1.08 | 1.04 |  | 
O=C1CCC[C@@H]2[C@H]3CCCN4CCC[C@H](CN12)[C@@H]34 [SOPHORIDINE] | > 100 µM | 1.03 | 0.94 | 1.05 | inactive | inactive
COC(=O)CCC[C@@H]1[C@H]2CCCN3CCC[C@H](CN1C(=O)Cc1ccc(-c4cccc(F)c4)cc1)[C@@H]23 | 53.3 µM | 1.21 | 1.16 | 1.04 |  | 
COC(=O)CCC[C@@H]1[C@H]2CCCN3CCC[C@H](CN1C(=O)Cc1ccc(-c4ccccc4)c(F)c1)[C@@H]23 | 14.5 µM | 0.97 | 1.13 | 1.04 |  | 
COC(=O)CCC[C@@H]1[C@H]2CCCN3CCC[C@H](CN1C(=O)COC(=O)Cc1ccccc1Nc1c(Cl)cccc1Cl)[C@@H]23 | 14.7 µM | 0.93 | 0.93 | 0.81 |  | 
COC(=O)CCC[C@@H]1[C@H]2CCCN3CCC[C@H](CN1C(=O)C(C)c1ccc(CC(C)C)cc1)[C@@H]23 (some centres not stated) | 53 µM | 1.03 | 1.04 | 1 |  | 
COC(=O)CCC[C@@H]1[C@H]2CCCN3CCC[C@H](CN1C(=O)Cc1ccc(-c4ccccc4)cc1)[C@@H]23 | 31.7 µM | 0.99 | 0.94 | 0.85 |  | 
COC(=O)CCC[C@@H]1[C@H]2CCCN3CCC[C@H](CN1C(=O)CC1=C(C)/C(=C/c4ccc([S+](C)[O-])cc4)c4ccc(F)cc41)[C@@H]23 (some centres not stated) | 61.8 µM | 0.99 | 1 | 0.99 |  | 
COC(=O)CCC[C@@H]1[C@H]2CCCN3CCC[C@H](CN1C(=O)[C@H](C)c1ccc4cc(OC)ccc4c1)[C@@H]23 | 63.5 µM | 1.02 | 0.99 | 0.94 |  | 
COC(=O)CCC[C@@H]1[C@H]2CCCN3CCC[C@H](CN1C(=O)Cc1ccc(-n4c(C)ccc4C)cc1)[C@@H]23 | 96 µM | 1.05 | 0.93 | 1.08 |  | 

— ChEMBL document CHEMBL6177933, “Discovery of Sophoridine α-Aryl Propionamide Derivative ZM600 as a Novel Antihepatic Fibrosis Agent” (J Med Chem, 2024)
